Data: ChEMBL document CHEMBL3739370, “Synthesis and evaluation of amide, sulfonamide and urea benzisoxazole derivatives as potential atypical antipsychotics” (Medchemcomm, 2015)

What was measured:
Mus musculus [1] = experiment: Antipsychotic activity in po dosed mouse assessed as reversal of apomorphine-induced climbing activity; assay type: functional
Mus musculus [2] = experiment: Antipsychotic activity in po dosed mouse assessed as reversal of MK-801-induced hyperactivity; assay type: functional
Mus musculus [3] = experiment: Toxicity in po dosed mouse assessed as catalepsy; assay type: organism-based; settings: in vivo
Mus musculus [4] = experiment: Antipsychotic activity in po dosed mouse assessed as reversal of DOI-induced head twitch activity; assay type: functional
D(2) dopamine receptor = D(2) dopamine receptor (Rattus norvegicus, UniProt P61169); experiment: Displacement of [3H]spiperone from dopamine D2 receptor in rat striatum
Sequence of D(2) dopamine receptor (P61169 whole entry): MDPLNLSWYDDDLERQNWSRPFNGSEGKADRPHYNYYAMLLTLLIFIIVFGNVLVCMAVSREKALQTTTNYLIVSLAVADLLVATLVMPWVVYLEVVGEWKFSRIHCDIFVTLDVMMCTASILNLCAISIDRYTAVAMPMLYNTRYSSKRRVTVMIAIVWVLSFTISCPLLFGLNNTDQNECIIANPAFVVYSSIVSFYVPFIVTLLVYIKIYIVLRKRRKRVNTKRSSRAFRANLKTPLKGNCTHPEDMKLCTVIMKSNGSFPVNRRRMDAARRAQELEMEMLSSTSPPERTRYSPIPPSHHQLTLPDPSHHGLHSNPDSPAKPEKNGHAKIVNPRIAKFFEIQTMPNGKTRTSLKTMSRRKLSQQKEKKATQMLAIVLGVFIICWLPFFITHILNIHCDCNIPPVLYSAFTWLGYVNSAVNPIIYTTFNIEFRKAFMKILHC

[5] = biological target: T1, 5-hydroxytryptamine receptor 1A (Rattus norvegicus, UniProt P19327); experiment: Displacement of [3H]8-OH-DPAT from 5HT1A receptor in rat brain cortex; assay type: tissue-based
T1 sequence (P19327 whole entry): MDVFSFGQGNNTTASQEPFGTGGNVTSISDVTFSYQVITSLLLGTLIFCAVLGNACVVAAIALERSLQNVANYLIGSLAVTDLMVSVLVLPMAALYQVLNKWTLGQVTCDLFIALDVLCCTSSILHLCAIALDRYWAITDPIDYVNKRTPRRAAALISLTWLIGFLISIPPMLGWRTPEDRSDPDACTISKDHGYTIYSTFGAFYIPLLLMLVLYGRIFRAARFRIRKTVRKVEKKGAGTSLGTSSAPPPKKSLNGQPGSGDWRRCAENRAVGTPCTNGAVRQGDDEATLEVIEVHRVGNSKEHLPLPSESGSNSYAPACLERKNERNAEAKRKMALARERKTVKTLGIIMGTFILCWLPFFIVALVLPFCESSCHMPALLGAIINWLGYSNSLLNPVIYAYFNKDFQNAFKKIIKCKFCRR

[6] = biological target: 5-hydroxytryptamine receptor 2A (Rattus norvegicus, UniProt P14842); experiment: Displacement of [3H]ketanserin from 5HT2A receptor in rat brain cortex; assay type: tissue-based
Sequence of 5-hydroxytryptamine receptor 2A (P14842 whole entry): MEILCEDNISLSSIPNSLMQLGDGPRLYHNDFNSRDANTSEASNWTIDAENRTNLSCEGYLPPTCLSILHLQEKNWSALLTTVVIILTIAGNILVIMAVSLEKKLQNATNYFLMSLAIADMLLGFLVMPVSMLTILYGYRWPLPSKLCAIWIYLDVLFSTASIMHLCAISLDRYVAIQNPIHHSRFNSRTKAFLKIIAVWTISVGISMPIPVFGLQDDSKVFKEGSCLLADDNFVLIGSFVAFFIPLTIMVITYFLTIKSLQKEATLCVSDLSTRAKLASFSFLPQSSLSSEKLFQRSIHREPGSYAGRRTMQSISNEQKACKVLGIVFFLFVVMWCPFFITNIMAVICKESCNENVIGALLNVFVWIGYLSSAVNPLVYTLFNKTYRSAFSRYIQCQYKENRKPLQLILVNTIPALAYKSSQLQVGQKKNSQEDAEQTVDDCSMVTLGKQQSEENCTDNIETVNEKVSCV

Mus musculus [7] = experiment: Selectivity ratio of ED50 for po dosed mouse assessed as catalepsy to ED50 for po dosed mouse assessed as reversal of apomorphine-induced climbing activity
Mus musculus [8] = experiment: Selectivity ratio of ED50 for po dosed mouse assessed as catalepsy to ED50 for po dosed mouse assessed as reversal of MK-801-induced hyperactivity

Structure (SMILES) | Ki (D(2) dopamine receptor) [nM] | Ki [5] [nM] | Ki [6] [nM] | other results
CN1CCN(C2=Nc3cc(Cl)ccc3Nc3ccccc32)CC1 [CLOZAPINE] | – | – | – | ED50 (Mus musculus [1]): 4.52 mg/kg; ED50 (Mus musculus [2]): 2.11 mg/kg; ED50 (Mus musculus [3]): 55.89 mg/kg
Cc1nc2n(c(=O)c1CCN1CCC(c3noc4cc(F)ccc34)CC1)CCCC2 [RISPERIDONE] | – | – | – | ED50 (Mus musculus [1]): 0.012 mg/kg; ED50 (Mus musculus [2]): 0.013 mg/kg; ED50 (Mus musculus [4]): 0.038 mg/kg; ED50 (Mus musculus [3]): 0.38 mg/kg
COc1ccc(C(=O)N2CCC(CN3CCC(c4noc5cc(F)ccc45)CC3)CC2)cc1 | 1190 | 2500 | 121 | –
O=S(=O)(c1cccs1)N1CCC(CN2CCC(c3noc4cc(F)ccc34)CC2)CC1 | 1290 | 165 | 455 | –
O=C(c1ccccc1)N1CCC(CN2CCC(c3noc4cc(F)ccc34)CC2)CC1 | 1270 | 599 | 114 | –
O=S(=O)(c1ccc2ccccc2c1)N1CCC(CN2CCC(c3noc4cc(F)ccc34)CC2)CC1 | 1380 | 1200 | 32.6 | –
O=[N+]([O-])c1ccc(S(=O)(=O)N2CCCC(CN3CCC(c4noc5cc(F)ccc45)CC3)C2)cc1 (stereo not drawn) | 1100 | 990 | 30.1 | –
O=S(=O)(c1ccc(F)cc1)N1CCC(CN2CCC(c3noc4cc(F)ccc34)CC2)CC1 | 211 | 789 | 368 | –
O=C(c1ccc(F)cc1)N1CCC(CN2CCC(c3noc4cc(F)ccc34)CC2)CC1 | 86.8 | 157 | 19 | –
O=C(c1ccc([N+](=O)[O-])cc1)N1CCC(CN2CCC(c3noc4cc(F)ccc34)CC2)CC1 | 195 | 269 | 71.8 | –
O=C(/C=C/c1ccccc1)N1CCC(CN2CCC(c3noc4cc(F)ccc34)CC2)CC1 | > 10000 | > 10000 | 2110 | –
O=C(C1CC1)N1CCC(CN2CCC(c3noc4cc(F)ccc34)CC2)CC1 | > 10000 | > 10000 | 216 | –
Cc1ccc(NC(=O)N2CCC(CN3CCC(c4noc5cc(F)ccc45)CC3)CC2)cc1 | 178 | 276 | 26.9 | –
O=C(Nc1ccc(Cl)cc1)N1CCC(CN2CCC(c3noc4cc(F)ccc34)CC2)CC1 | 85.6 | 299 | 6.8 | –
O=C(CCCN1CCC(O)(c2ccc(Cl)cc2)CC1)c1ccc(F)cc1 [HALOPERIDOL] | – | – | – | ED50 (Mus musculus [1]): 0.17 mg/kg; ED50 (Mus musculus [2]): 0.14 mg/kg; ED50 (Mus musculus [3]): 0.47 mg/kg; Ratio ED50 (Mus musculus [7]): 2.8; Ratio ED50 (Mus musculus [8]): 3.4
CCN(C)C(=O)N1CCC(CN2CCC(c3noc4cc(F)ccc34)CC2)CC1 | > 10000 | > 10000 | 1100 | –
CC(C)(C)C(=O)N1CCC(CN2CCC(c3noc4cc(F)ccc34)CC2)CC1 | > 10000 | > 10000 | 310 | –
Cc1ccc(S(=O)(=O)N2CCC(CN3CCC(c4noc5cc(F)ccc45)CC3)CC2)cc1 | 1290 | > 10000 | 1520 | –
O=C(NCc1ccccc1)N1CCC(CN2CCC(c3noc4cc(F)ccc34)CC2)CC1 | 1270 | > 10000 | 265 | –
N#Cc1ccc(S(=O)(=O)N2CCC(CN3CCC(c4noc5cc(F)ccc45)CC3)CC2)cc1 | 190 | 479 | 113 | –
O=[N+]([O-])c1ccccc1S(=O)(=O)N1CCC(CN2CCC(c3noc4cc(F)ccc34)CC2)CC1 | 590 | 1010 | 26.9 | –
O=[N+]([O-])c1ccc(S(=O)(=O)N2CCC(CCN3CCC(c4noc5cc(F)ccc45)CC3)CC2)cc1 | > 10000 | 1370 | 66.8 | –
CN(C)C(=O)N1CCC(CN2CCC(c3noc4cc(F)ccc34)CC2)CC1 | > 10000 | > 10000 | 569 | –
O=S(=O)(c1ccccc1)N1CCC(CN2CCC(c3noc4cc(F)ccc34)CC2)CC1 | 2500 | > 10000 | > 10000 | –
O=[N+]([O-])c1cccc(S(=O)(=O)N2CCC(CN3CCC(c4noc5cc(F)ccc45)CC3)CC2)c1 | 759 | 917 | 135 | –
